Measurements as given in PubChem BioAssay (NCI).
Where “and” joins values, the source holds several entries; their conditions need not be identical. Identical values can stand only once.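 How tested: cells in 96-well plates exposed to compound for 48 hours at five concentrations. GI50 = concentration required for 50% inhibition of growth. Definition used: TGI = concentration required for complete inhibition of growth.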

How the values were obtained:
Assay in all cases: NCI tumour cell line growth inhibition, 48 h
[1] = test system: NCI-H23 lung
[2] = test system: EKVX NSCLC
[3] = test system: PC-3 prostate
[4] = test system: UACC-62 melanoma
[5] = test system: HCT-116 colon
[6] = test system: NCI-H226 lung
[7] = test system: SK-OV-3 ovarian
[8] = test system: HS 578T breast
[9] = test system: SF-295 CNS
[10] = test system: DU-145 prostate
[11] = test system: MOLT-4 leukemia
[12] = test system: ACHN renal
[13] = test system: IGROV1 ovarian
[14] = test system: HOP-92 NSCLC
[15] = test system: OVCAR-8 ovarian
[16] = test system: MCF7 breast
[17] = test system: HL-60(TB) leukemia
[18] = test system: OVCAR-5 ovarian
[19] = test system: A549 NSCLC
[20] = test system: LOX IMVI melanoma
[21] = test system: HCC-2998 colon
[22] = test system: SR leukemia
[23] = test system: CAKI-1 renal
[24] = test system: U251 CNS
[25] = test system: HT29 colon
[26] = test system: K-562 leukemia
[27] = test system: HCT-15 colon
[28] = test system: SK-MEL-5 melanoma
[29] = test system: OVCAR-4 ovarian
[30] = test system: SW-620 colon
[31] = test system: SF-539 CNS
[32] = test system: MDA-MB-231 breast
[33] = test system: NCI-H460 lung
[34] = test system: SN12C renal
[35] = test system: KM12 colon
[36] = test system: HOP-62 NSCLC
[37] = test system: SK-MEL-2 melanoma
[38] = test system: BT-549 breast
[39] = test system: OVCAR-3 ovarian
[40] = test system: RXF 393 renal
[41] = test system: A498 renal
[42] = test system: SNB-19 CNS
[43] = test system: NCI/ADR-RES ovarian
[44] = test system: UACC-257 melanoma
[45] = test system: UO-31 renal
[46] = test system: NCI-H522 lung
[47] = test system: RPMI-8226 leukemia
[48] = test system: 786-0 renal
[49] = test system: MALME-3M melanoma
[50] = test system: COLO 205 colon
[51] = test system: T-47D breast
[52] = test system: MDA-MB-435
[53] = test system: TK-10 renal
[54] = test system: SK-MEL-28 melanoma

CC(C)C[C@H](NC(=O)[C@H](Cc1cccc2ccccc12)NS(=O)(=O)c1cccc2cccnc12)B(O)O
GI50 [1]: 6.12 nM
TGI [1]: 132 nM and 199 nM
GI50 [2]: 109 nM
TGI [2]: > 100000 nM
GI50 [3]: 53.4 nM
TGI [3]: 817 nM and 418 nM
GI50 [4]: 4.88 nM
TGI [4]: 38.5 nM and 125 nM
GI50 [5]: 1.01 nM
TGI [5]: 20.3 nM and < 35.1 nM
TGI [6]: 0.542 nM
TGI [7]: > 33800 nM
GI50 [8]: 1.37 nM
TGI [8]: 17 nM
GI50 [9]: 61.4 nM and 59.6 nM
TGI [10]: 524 nM
GI50 [11]: 0.334 nM
TGI [11]: 2.28 nM
TGI [12]: > 38800 nM
GI50 [13]: 33.1 nM
TGI [13]: 298 nM and 301 nM
GI50 [14]: 29.9 nM
TGI [14]: 54.7 nM and 93.8 nM
GI50 [15]: 117 nM
TGI [15]: 409 nM and 2900 nM
GI50 [16]: 0.525 nM
TGI [16]: > 30500 nM
GI50 [17]: 0.204 nM
GI50 [18]: 8.27 nM
TGI [18]: 138 nM and 246 nM
GI50 [19]: 62.6 nM
TGI [19]: > 28900 nM
GI50 [20]: 1.37 nM
TGI [20]: 22.6 nM and < 19.9 nM
GI50 [21]: 17.4 nM
TGI [21]: 14.9 nM and 38.9 nM
GI50 [22]: 0.169 nM
TGI [22]: 8.12 nM
GI50 [23]: 32 nM
TGI [23]: 198 nM and 1190 nM
GI50 [24]: 11 nM
TGI [24]: 1450 nM
GI50 [25]: 0.937 nM
TGI [25]: 22 nM
GI50 [26]: 9.4 nM
TGI [26]: 163 nM
GI50 [27]: 130 nM
TGI [27]: 403 nM
GI50 [28]: 5.39 nM
TGI [28]: 71.4 nM and 20.6 nM
TGI [29]: 173 nM
GI50 [30]: 1.5 nM
TGI [30]: 22.3 nM
GI50 [31]: 0.193 nM
TGI [32]: 56.7 nM and 59.7 nM
GI50 [33]: 61.8 nM
TGI [33]: 1350 nM
GI50 [34]: 7.1 nM
TGI [34]: 230 nM and 109 nM
GI50 [35]: 17.8 nM
TGI [35]: 114 nM and 179 nM
GI50 [36]: 51.1 nM
TGI [36]: 563 nM
TGI [37]: 95 nM and 83.3 nM
GI50 [38]: 0.863 nM
TGI [38]: 39.5 nM
GI50 [39]: 0.595 nM
TGI [39]: 14.9 nM and 30.9 nM
GI50 [40]: 9.19 nM
TGI [40]: 27.3 nM and < 23.7 nM
GI50 [41]: 3.42 nM
TGI [41]: 222 nM and 126 nM
TGI [42]: > 35300 nM
TGI [43]: 17700 nM
TGI [44]: 29 nM and 35.7 nM
GI50 [45]: 353 nM
TGI [45]: 1060 nM
TGI [46]: 35.2 nM
GI50 [47]: 0.296 nM
TGI [47]: 0.934 nM
GI50 [48]: 49.5 nM
TGI [48]: 12800 nM
GI50 [49]: 0.588 nM
TGI [49]: 17.5 nM and 20.8 nM
GI50 [50]: 28.8 nM
TGI [50]: 3790 nM
GI50 [51]: 0.928 nM
TGI [51]: 26.9 nM and < 21.8 nM
GI50 [52]: 0.241 nM
TGI [52]: 0.574 nM
GI50 [53]: 36 nM
TGI [53]: 351 nM
GI50 [54]: 0.701 nM
TGI [54]: 11.6 nM
